Measurements published in US8835476B2, “Synthesis of novel antimicrobials” (priority 2005, dated 2014).
Values after ≈ are worked out from the molar mass of the structure shown. Where two headings read alike, the source gives them in different places.

What was measured:
Format in all cases: cell-based
[1] = test system: P. rettgeri CAP; test: Broth microdilution MIC, reference strains; details: Providencia rettgeri; P. rettgeri (CAP in Table 1); read-out: MIC (growth inhibition, microdilution method)
Source text: (§1) All clinical isolates tested were from The North American Urinary Tract Infection Collaborative Alliance (NAUTICA) which is a UTI surveillance study involving 40 medical centres (30 from the US and 10 from Canada). Each centre submitted up to 50 consecutive outpatient midstream urine isolates. All isolates were deemed significant urinary tract pathogens by individual laboratory criteria and identified to the species level by each laboratory's existing protocol. Isolates were transported to the coordinating laboratory (Health Sciences Centre, Winnipeg, Canada) on charcoal swabs. Only one isolate per patient was accepted. Upon receipt, isolates were cultured by the coordinating laboratory, stocked in skim milk, and stored at −80° C. awaiting reference antibiotic susceptibility testing. Elementary demographic information was also compiled for each isolate. Isolates were selected randomly from the above pool to represent 18 different species of Enterobacteriaceae and non-Enterobacteriaceae. An average of 5 strains of each species were tested for a total of 93 organisms. In addition, 23 reference (ATCC) [both gram negative and gram positive] strains were tested.
(§2) Susceptibilities to the compounds were determined using the National Committee for Clinical Laboratory Standards (NCCLS) M7-A6 broth microdilution method. […] DMSO controls were incorporated into the panel to mimic the quantity of DMSO used in dissolving some of the compounds at the higher concentrations. Each final panel well volume was 100 μl with a bacterial inoculum of 5×10^5 colony forming units (CFU)/ml. Panels were read following 16 to 20 hours of incubation at 35° C. in ambient air. The minimum inhibitory concentration (MIC) was defined as the lowest concentration of antimicrobial inhibiting visible growth. Quality control (QC) was performed using four ATCC QC organisms that were run with every batch set up to insure reproducibility.

[2] = test system: C. koseril clinical isolates; test: Broth microdilution MIC, clinical isolate strains (NAUTICA); details: clinical isolates, one table line per isolate; unit assumed
Source text: as §1, §2

[3] = test system: S. liquifaciens clinical isolates; test: as above; details: clinical isolates, one table line per isolate; unit assumed
Source text: as §1, §2

[4] = test system: E. aerogenes clinical isolates; test: as above; details: clinical isolates, one table line per isolate; unit assumed
Source text: as §1, §2

[5] = test system: B. cepacia clinical isolates; test: as above; details: clinical isolates, one table line per isolate; unit assumed
Source text: as §1, §2

[6] = test system: S. maltophilia clinical isolates; test: as above; details: clinical isolates, one table line per isolate; unit assumed
Source text: as §1, §2

[7] = test system: M. morganii clinical isolates; test: as above; details: clinical isolates, one table line per isolate; unit assumed
Source text: as §1, §2

[8] = test system: A. baumanii clinical isolates; test: as above; details: clinical isolates, one table line per isolate; unit assumed
Source text: as §1, §2

[9] = test system: S. marcescens clinical isolates; test: as above; details: clinical isolates, one table line per isolate; unit assumed
Source text: as §1, §2

[10] = test system: E. aerogenes ATCC 13048; test: Broth microdilution MIC, ATCC strains; details: Klebsiella aerogenes, ATCC13048; E. aerogenes ATCC 13048; read-out: MIC (growth inhibition, microdilution method)
Source text: as §1, §2

[11] = test system: K. pneumoniae ATCC 13883; test: Broth microdilution MIC, ATCC strains; details: Klebsiella pneumoniae, ATCC13883; K. pneumoniae ATCC 13883; read-out: MIC (growth inhibition, microdilution method)
Source text: as §1, §2

[12] = test system: E. faecalis ATCC 29212; test: Broth microdilution MIC, ATCC strains; details: Enterococcus faecalis, read-out: MIC (growth inhibition, microdilution method)
Source text: as §1, §2

[13] = test system: P. vulgaris ATCC 49132; test: Broth microdilution MIC, ATCC strains; details: Proteus vulgaris, ATCC49132; P. vulgaris ATCC 49132; read-out: MIC (growth inhibition, microdilution method)
Source text: as §1, §2

[14] = test system: E. faecium ATCC 35667; test: Broth microdilution MIC, ATCC strains; details: Enterococcus faecium, ATCC35667, read-out: MIC (growth inhibition, microdilution method)
Source text: as §1, §2

[15] = test system: Pr. stuartii ATCC 33672; test: Broth microdilution MIC, ATCC strains; details: Providencia stuartii, ATCC33672; Pr. stuartii ATCC 33672; read-out: MIC (growth inhibition, microdilution method)
Source text: as §1, §2

[16] = test system: Ps. aeruginosa ATCC 27853; test: Broth microdilution MIC, ATCC strains; details: Pseudomonas aeruginosa, ATCC27853; Ps. aeruginosa ATCC 27853; read-out: MIC (growth inhibition, microdilution method)
Source text: as §1, §2

[17] = test system: B. cepacia ATCC 25416; test: Broth microdilution MIC, ATCC strains; details: Burkholderia cepacia, ATCC25416; B. cepacia ATCC 25416; read-out: MIC (growth inhibition, microdilution method)
Source text: as §1, §2

[18] = test system: S. epidermidis ATCC 14990; test: Broth microdilution MIC, ATCC strains; details: Staphylococcus epidermidis, ATCC14990; S. epidermidis ATCC 14990; read-out: MIC (growth inhibition, microdilution method)
Source text: as §1, §2

[19] = test system: S. simulans ATCC 27848; test: Broth microdilution MIC, ATCC strains; details: Staphylococcus simulans, ATCC27848, read-out: MIC (growth inhibition, microdilution method)
Source text: as §1, §2

[20] = test system: S. marcescens ATCC 8100; test: Broth microdilution MIC, ATCC strains; details: Serratia marcescens, ATCC8100; S. marcescens ATCC 8100; read-out: MIC (growth inhibition, microdilution method)
Source text: as §1, §2

[21] = test system: S. saprophyticus ATCC 15305; test: Broth microdilution MIC, ATCC strains; details: Staphylococcus saprophyticus, ATCC15305; S. saprophyticus ATCC 15305; read-out: MIC (growth inhibition, microdilution method)
Source text: as §1, §2

[22] = test system: S. warneri ATCC 27836; test: Broth microdilution MIC, ATCC strains; details: Staphylococcus warneri, ATCC27836; S. warneri ATCC 27836; read-out: MIC (growth inhibition, microdilution method)
Source text: as §1, §2

[23] = test system: S. maltophilia ATCC 13637; test: Broth microdilution MIC, ATCC strains; details: Stenotrophomonas maltophilia, ATCC13637; S. maltophilia ATCC 13637; read-out: MIC (growth inhibition, microdilution method)
Source text: as §1, §2

[24] = test system: S. aureus ATCC 29213; test: Broth microdilution MIC, ATCC strains; details: Staphylococcus aureus, ATCC29213, S. aureus ATCC 29213; read-out: MIC (growth inhibition, microdilution method)
Source text: as §1, §2

[25] = test system: E. coli ATCC 25922; test: Broth microdilution MIC, ATCC strains; details: Escherichia coli, ATCC25922, E. coli ATCC 25922; read-out: MIC (growth inhibition, microdilution method)
Source text: as §1, §2

[26] = test system: A. anitratus ATCC 19606; test: Broth microdilution MIC, ATCC strains; details: Acinetobacter calcoaceticus, ATCC19606; A. anitratus ATCC 19606; read-out: MIC (growth inhibition, microdilution method)
Source text: as §1, §2

[27] = test system: P. mirabilis ATCC 29245; test: Broth microdilution MIC, ATCC strains; details: Proteus mirabilis, ATCC29245; P. mirabilis ATCC 29245; read-out: MIC (growth inhibition, microdilution method)
Source text: as §1, §2

[28] = test system: S. liquefaciens ATCC 27592; test: Broth microdilution MIC, ATCC strains; details: S. liquefaciens ATCC 27592; read-out: MIC (growth inhibition, microdilution method)
Source text: as §1, §2

[29] = test system: E. cloacae ATCC 23355; test: Broth microdilution MIC, ATCC strains; details: Enterobacter cloacae, ATCC23355; E. cloacae ATCC 23355; read-out: MIC (growth inhibition, microdilution method)
Source text: as §1, §2

[30] = test system: K. oxytoca ATCC 49131; test: Broth microdilution MIC, ATCC strains; details: Klebsiella oxytoca, ATCC49131; K. oxytoca ATCC 49131; read-out: MIC (growth inhibition, microdilution method)
Source text: as §1, §2

[31] = test system: MRSA ATCC 33591; test: Broth microdilution MIC, ATCC strains; details: Staphylococcus aureus; MRSA ATCC 33591; read-out: MIC (growth inhibition, microdilution method)
Source text: as §1, §2

[32] = test system: E. cloacae clinical isolates; test: Broth microdilution MIC, clinical isolate strains (NAUTICA); details: clinical isolates, one table line per isolate; unit assumed
Source text: as §1, §2

[33] = ATCC29212, E. faecalis ATCC 29212
[34] = ATCC29212, E. faecalis, ATCC number not given

Row | SMILES | MIC [1] [µg/mL] | MIC, B. CEPACIA [5] [µg/mL] | MIC, S. MALTOPHILIA [6] [µg/mL] | MIC, A. BAUMANII [8] [µg/mL] | MIC [10] [µg/mL] | MIC [11] [µg/mL] | MIC [12, 33] [µg/mL] | MIC [12, 34] [µg/mL] | MIC [13] [µg/mL] | MIC [14] [µg/mL] | MIC [15] [µg/mL] | MIC [16] [µg/mL] | MIC [17] [µg/mL] | MIC [18] [µg/mL] | MIC [19] [µg/mL] | MIC [20] [µg/mL] | MIC [21] [µg/mL] | MIC [22] [µg/mL] | MIC [23] [µg/mL] | MIC [24] [µg/mL] | other results
1 | Cn1nnnc1-c1cc(C(=O)O)sc1C(=O)O [DNM-113, 3-(1-Methyl-1H-tetrazol-5-yl)-thiophene-2,5-dicarboxylic acid] | 8 (≈ 31.5 µM) | 8 (≈ 31.5 µM) | 8 (≈ 31.5 µM) | 8 (≈ 31.5 µM) | 8 (≈ 31.5 µM) | 8 (≈ 31.5 µM) | 8 (≈ 31.5 µM) | 8 (≈ 31.5 µM) | 16 (≈ 62.9 µM) | 8 (≈ 31.5 µM) | 16 (≈ 62.9 µM) | 8 (≈ 31.5 µM) | 8 (≈ 31.5 µM) | 8 (≈ 31.5 µM) | 32 (≈ 126 µM) | 8 (≈ 31.5 µM) | 8 (≈ 31.5 µM) | 16 (≈ 62.9 µM) | 8 (≈ 31.5 µM) | 32 (≈ 126 µM) | MIC, C. KOSERI [2]: 8 µg/mL (≈ 31.5 µM); MIC, S. LIQUEFACIENS [3]: 8 µg/mL (≈ 31.5 µM); MIC, E. AEROGENES [4]: 8 µg/mL (≈ 31.5 µM); MIC, M. MORGANII [7]: 8 µg/mL (≈ 31.5 µM); MIC, S. MARCESCENS [9]: 8 µg/mL (≈ 31.5 µM); MIC [25]: 8 µg/mL (≈ 31.5 µM); MIC [26]: 8 µg/mL (≈ 31.5 µM); MIC [27]: 16 µg/mL (≈ 62.9 µM); MIC [28]: 8 µg/mL (≈ 31.5 µM); MIC [29]: 8 µg/mL (≈ 31.5 µM); MIC [30]: 8 µg/mL (≈ 31.5 µM); MIC [31]: 64 µg/mL (≈ 252 µM)
2 | COC(=O)c1cc(-c2nnnn2C)c(C(=O)OC)s1 [DNM-115, 3-(1-Methyl-1H-tetrazol-5-yl)-thiophene-2,5-dicarboxylic acid dimethyl ester] | 16 (≈ 56.7 µM) | 8 (≈ 28.3 µM) | 8 (≈ 28.3 µM) | 8 (≈ 28.3 µM) | 8 (≈ 28.3 µM) | 8 (≈ 28.3 µM) | 8 (≈ 28.3 µM) | 8 (≈ 28.3 µM) | 16 (≈ 56.7 µM) | 8 (≈ 28.3 µM) | > 16 | 8 (≈ 28.3 µM) | 8 (≈ 28.3 µM) | 8 (≈ 28.3 µM) | > 16 | 8 (≈ 28.3 µM) | 8 (≈ 28.3 µM) | > 16 | 8 (≈ 28.3 µM) | > 16 | MIC, E. CLOACAE [32]: > 16 µg/mL; MIC [25]: 8 µg/mL (≈ 28.3 µM); MIC [26]: 8 µg/mL (≈ 28.3 µM); MIC [27]: 16 µg/mL (≈ 56.7 µM); MIC [28]: 8 µg/mL (≈ 28.3 µM); MIC [29]: > 16 µg/mL; MIC [30]: 8 µg/mL (≈ 28.3 µM); MIC [31]: > 16 µg/mL
